Experimental data published in patent publication US20070270350A1, “Methods and Compositions for the Prevention and Treatment of Inflammatory Diseases or Conditions” (MUSC FOUNDATION FOR RESEARCH DEVELOPMENT, priority 2003, published 2007).
Values belong to the molecule of their own block, whether it stands above or below them.

Columns and labels:
Microglia = conditions: 10 μM lovastatin or 5 mM NaPA 8 h, LPS 1.0 μg/ml, 24 h
Macrophages = conditions: 10 μM lovastatin or 5 mM NaPA 8 h, LPS 1.0 μg/ml, 24 h
Rat Primary Astrrocytes = conditions: LPS 1.0 μg/ml, 24 h
iNOS [1] = test: LPS/IFN-induced NO production and iNOS gene expression in primary astrocytes; type: cell-based, rat; conditions: for effect on D-PDMP mediated inhibition of NO production: glycosphingolipid 5 and 10 μM added with D-PDMP 50 μM, 0.5 hr before LPS/IFN
iNOS [2] = test: LPS-induced iNOS expression and iNOS promoter activity in primary astrocytes (AICAR); type: cell-based, rat; conditions: GGPP 10 μM, FPP 10 μM, mevalonate 10 mM with AICAR 1 mM
Method: Immunoblot Analysis: Cells were harvested in ice-cold lysis buffer (50 mM Tris-HCl, pH 7.4, containing 50 mM NaCl, 1 mM EDTA, 0.5 mM EGTA, 10% glycerol and protease inhibitor cocktail) and protein was estimated using Bradford reagent (Bio-Rad, USA). Fifty microgram of total protein/lane was separated by SDS-PAGE and blotted to nitrocellulose (Amersham Pharmacia Biotech). Blots were blocked for 1 h in 5% nonfat dry milk-TBS-0.1% Tween 20 and incubated overnight with primary antibody (1:1000) in 5% BSA-TBS-0.1% Tween 20 at 4° C. This was followed by incubation of 1 h with appropriate secondary peroxidase conjugated antibody (1:10,000, Sigma). Immunoreactivity was detected using the enhanced chemiluminescence detection method according to the manufacturer's instructions (Amersham Pharmacia Biotech) and subsequent exposure of the membrane to X-ray film. Antisense experiments: To decrease the levels of endogenous AMPK, astrocytes were pretreated for 48 h with 25 μm (of phosphothiorated antisense (AS) oligonucleotide ([NT]) directly against both the ? α1 and α2 ? subunits of AMPK (Culmsee et al., 2001) ? ? ? missense (MS) oligonucleotide ([NT]) was used in control cultures. Oligonucleotides were transfected with OligofectamineTM reagent as per manufacturer's instructions. Northern blot, gene array analysis and RT-PCR for cytokines expression: Total RNA was extracted with Trizol (Gibco) according to the manufacturer's protocol. Northern blot for iNOS was performed with 15 μg of RNA per reaction as described previously (Pahan et al., 1997). β-actin was used as control for RNA loading. Gene expression array for inflammatory cytokines (TNFα, IL-1β, IL-6 and IFN-γ) was used according to the manufacturer's protocol (Superarray). Signal quantitation was determined using imaging densitomter (Bio-Rad Lab, Hercules, Calif.). For RT-PCR, RNA was isolated from treated rat brain cerebral cortex by extracting in Trizol as above. cDNA was prepared from 5 μg of total RNA using poly dT as a primer and Moloney murine leukemia virus reverse transcriptase (Promega) as per manufacturer's instructions. 2 μl of cDNA was used to amplify the following products [given as product name, expected size, and forward (F) and reverse (R) primers used]: iNOS, 730 bp. ([NT]-1β, 623 bp. ([…]-α, 473 bp. ([…], 528 bp. […] Transcriptional assays: Primary astrocytes or microglial cell line (BV2) were transiently transfected with NF- ? B-or iNOS-luciferase reporter gene with ? -galactosidase in the presence or absence of dominant negative AMPKα2 or HA-IKK ? by lipofectamine-2000 (astrocytes) and lipofectamine-Plus (BV2, Invitrogen) according to the manufacturer instructions. pcDNA3 was used to normalize all groups to equal amounts of DNA. Luciferase activity was determined using a luciferase kit (Promega).

KA-treated rats = test: KA-induced seizure model (epilepsy model), rat hippocampus; type: in vivo; conditions: 3 days after KA
Method: FIG. 45. Experimental design for the use of statins as a therapeutic for kinic acid induced seizures (epilepsy model).
FIG. 46. […] The rats were orally pre-treated (7 days before) with atorvastatin (LP; 10 mg/kg) prior to KA (10 mg/kg, i.p.). At 3 days after KA injection, neuronal cell death in hippocampus was examined using cresyl violet stain.
FIG. 47. […] The rats were orally pre-treated (7 days before) with atorvastatin (LP; 10 mg/kg) prior to KA (10 mg/kg, i.p.). At 3 days after KA injection, infiltration of macrophages in the CA1 and CA3 regions of the hippocampus was examined using immunofluorescent labeling against for ED-1, as a marker of monocytes.
The rats were orally pre-treated (7 days before) with atorvastatin (LP; 10 mg/kg) prior to KA (10 mg/kg, i.p.). At 3 days after KA injection, neuronal cell death in the CA1 (A) and CA3 (B) regions of the hippocampus was examined using TUNNEL assay.
FIG. 49. […] The rats were orally pre-treated (7 days before) with lovastatin (Lov; 10 mg/kg) prior to KA (10 mg/kg, i.p.). At 3 days after KA injection, neuronal cell death in hippocampus was examined using cresyl violet stain.
(§1) FIG. 50A-C. […] The rats were orally pre-treated (7 days before) with atorvastatin (LP; 10 mg/kg) prior to KA (10 mg/kg, i.p.). At 3 days after KA injection, the expression of inflammatory genes (TNF-α, IL-1β, and iNOS) in hippocampus using real time PCR. The expression of each gene was normalized with GAPDH expression.
as §1, with “51A-C.” for “50A-C.”, “lovastatin (Lov;” for “atorvastatin (LP;”
Seizure index: stage 1, facial clonus; stage 2, nodding; stage 3, forelimb clonus; stage 4, forelimb clonus with rearing; stage 5, rearing, jumping, and falling. The rats were orally pre-treated (7 days before) with lovastatin or atorvastatin (Lov or LP; 10 mg/kg) prior to KA (10 mg/kg, i.p.).

[3] = Comparison of biology of IFN-β, GA and statin + GSNO (Table 2)
Source text: FIGS. 28-52 provide additional data that show the effectiveness of statins in treating a variety of inflammatory diseases such as multiple sclerosis, spinal cord injury, stroke, and kinic acid induced seizures. Additionally, Table 2 provides data concerning the treatment of multiple sclerosis (MS) with statins as compared to two other approved MS drugs.

iNOS [4] = test: LPS/IFN-induced NO production and iNOS expression in C6 glioma cells; type: cell-based, rat; conditions: exogenous glycosphingolipid with D-PDMP
Method: C6 rat glioma cells obtained from ATCC were maintained in Dulbecco's modified Eagle's medium (DMEM) (GIBCO, CA) containing 10% fetal bovine serum (FBS) (GIBCO) and 10 ? g/ml gentamicin. All the cultured cells were maintained at 37° C. in 5% CO2/95% air. At 80% confluency, the cells were incubated with serum free DMEM medium for 24 h prior to the incubation with LPS/IFN ? and other chemicals. Assay for NO production. Cells were cultured in 12-well plastic tissue culture plates. After the appropriate treatment, production of NO was determined by an assay of the culture supernatant for nitrite (Green et al., 1982). Briefly, 100 μl of culture supernatant was allowed to react with 100 μl of Griess reagent. The optical density of the assay samples was measured spectrophotometrically at 570 nm. Nitrite concentrations were calculated from a standard curve derived from the reaction of NaNO2 in fresh media. Western Blot Analysis. […] The protein concentration of samples was determined with the detergent compatible protein assay reagent (Bio-Rad Laboratories, CA) using bovine serum albumin (BSA) as the standard. Sample was boiled for 3 min with 0.1 volumes of 10% O-mercaptoethanol and 0.5% bromophenol blue mix. Fifty μg of total cellular protein was resolved by electrophoresis in 8 or 12% polyacrylamide gels, electro-transferred to polyvinylidene difluoride (PVDF) filter and blocked with Tween 20 containing Tris-buffered saline [TBST; 10 mM Trizma base (pH 7.4), 1% Tween 20, and 150 mM NaCl] with 5% skim milk. After incubation with antiserum against iNOS (BD PharMingen, CA), or hRas (Upstate Biotechnology, CA), or phospho-specific MAPK (p42/44) (Signal Transduction), in PVDF buffer for 2 h at room temperature, the filters were washed 3 times with TBST buffer and then incubated with horseradish peroxidase conjugated anti-rabbit or mouse IgG for 1 h. The membranes were autoradiographed by using ECL-plus (Amersham Pharmacia Biotech) after washing with TBST buffer. RT-PCR amplification. […] PCR amplification was conducted in 25 ? l of reaction mixture with 1.0 ? l of cDNA, […] and under the manufacturer's Taq polymerase conditions (Takara, […] Shuzo Co. Ltd, Japan). The sequence of primers used for PCR amplification are as follows; iNOS, (Forward-[NT], Reverse-[NT]), GalT-2 (Forward-[NT], Reverse-[NT]), GAPDH (Forward-[NT], Reverse-[NT]).

[5] = 10 mg/kg orally, 7 days before KA
[6] = PD98059 pretreatment 0.5 hr before LPS, 24 hrs

Molecule: O=C([O-])Cc1ccccc1.[Na+] [NaPA]
TNF-α (Microglia; LPS only 14.5 +/− 2.1): 1.3 +/− 0.2 ng/24 h/mg protein
Il-1β (Microglia; LPS only 28.2 +/− 3.4): 2.4 +/− 0.2 ng/24 h/mg protein
NO (Microglia; LPS only 81.2 +/− 6.9): 6.9 +/− 0.9 n mol/24 h/mg protein
IL-6 (Microglia; LPS only 295.6 +/− 33.5): 9.3 +/− 1.2 ng/24 h/mg protein
TNF-α (Macrophages; LPS only 18.6 +/− 2.3): 1.7 +/− 0.2 ng/24 h/mg protein
Il-1β (Macrophages; LPS only 34.6 +/− 4.5): 3.1 +/− 0.4 ng/24 h/mg protein
NO (Macrophages; LPS only 118.5 +/− 12.5): 9.5 +/− 0.7 n mol/24 h/mg protein
IL-6 (Macrophages; LPS only 350.0 +/− 27.6): 10.2 +/− 1.4 ng/24 h/mg protein
TNF-α (Rat Primary Astrrocytes; 10 μM lovastatin or 5 mM NaPA 8 h, LPS only 5.3 +/− 0.8): 0.4 +/− 0.06 ng/24 h/mg protein
Il-1β (Rat Primary Astrrocytes; 10 μM lovastatin or 5 mM NaPA 8 h, LPS only 10.4 +/− 1.5): 1.1 +/− 0.2 ng/24 h/mg protein
IL-6 (Rat Primary Astrrocytes; 10 μM lovastatin or 5 mM NaPA 8 h, LPS only 136.5 +/− 16.8): 1.1 +/− 0.2 ng/24 h/mg protein
NO (Rat Primary Astrrocytes; 10 μM lovastatin or 5 mM NaPA 8 h serum free, LPS only 25.3 +/− 3.2): 5.4 +/− 0.6 n mol/24 h/mg protein

Molecule: galactosylceramide [GalCer]
effect on D-PDMP mediated inhibition of NO production (iNOS [1]; 24 hrs): did not reverse

effect on inhibitory effect of AICAR on LPS induced iNOS-luciferase activity (iNOS [2]): did not reverse
Molecule: CC(O)(CCO)CC(=O)O (stereo not shown) [mevalonate]

Molecule: CC(C)c1c(C(=O)Nc2ccccc2)c(-c2ccccc2)c(-c2ccc(F)cc2)n1CC[C@@H](O)C[C@@H](O)CC(=O)O [Atorvastatin, atorvastatin]
apoptosis induced by KA in hippocampus (TUNNEL assay, CA1 and CA3) (KA-treated rats; [5]): inhibited
infiltration of macrophages induced by KA in hippocampus (ED-1) (KA-treated rats; [5]): inhibited
KA-induced neuronal cell death in hippocampus (cresyl violet stain) (KA-treated rats; statin 10 mg/kg orally, 7 days before KA 10 mg/kg i.p.): inhibited
expression of inflammatory genes (TNF-α, IL-1β, and iNOS) induced by KA in hippocampus (real time PCR) (KA-treated rats; statin 10 mg/kg orally, 7 days before KA): inhibited

Molecule: COc1cccc(-c2cc(=O)c3ccccc3o2)c1N [PD98059]
NO production (iNOS [1]; [6]): inhibition
iNOS expression (iNOS [1]; [6]): inhibition

Molecule: 5′-CGCTTGAGCGCAGACATCTT-3′ (chemistry not given here) [antisense DNA oligomer, 20-mer antisense oligonucleotide targeted against rat lactosylceramide synthase (GalT-2)]
iNOS mRNA and protein levels (iNOS [1]; GalT-2 antisense 200 nM oligo, stimulated 2 d after transfection, 6 hrs mRNA, 24 hrs protein): reduced significantly
LPS/IFN-mediated NO production (iNOS [1]; GalT-2 antisense 200 nM oligo, stimulated 2 d after transfection, 24 hr): reduced significantly

Molecule: glatiramer acetate [GA]
Decrease expression of adhesion molecules [3]: No
Decrease inflammatory cytokines [3]: Yes
Decreased expression of MHCII [3]: No
Excludes leukocytes from entering CNS [3]: No
Inhibition of MMPs [3]: No
Inhibition of chemokine expression [3]: No
Inhibition of clonal expression of co-stimulatory molecules [3]: Yes
Interferences with T-cell activation [3]: Yes
Leukocyte trafficking across the blood brain barrier (BBB) [3]: No
Neuroprotection [3]: Yes
Protection of BBB [3]: No
Reduced level of co-stimulatory molecules [3]: No
Th1 to Th2 deviation [3]: Yes

Molecule: Glucosylceramide [GluCer]
effect on D-PDMP mediated inhibition of NO production (iNOS [1]; 24 hrs): did not reverse
effect on D-PDMP inhibition of NO production (iNOS [4]): no effect
effect on D-PDMP inhibition of iNOS mRNA and protein expression (iNOS [4]): no effect

effect on inhibitory effect of AICAR on LPS induced iNOS-luciferase activity (iNOS [2]): did not reverse
Molecule: CC(C)=CCC/C(C)=C/CC/C(C)=C/CC/C(C)=C/COP(=O)(O)OP(=O)(O)O [GGPP, geranylgeranyl pyrophosphate]

effect on inhibitory effect of AICAR on LPS induced iNOS-luciferase activity (iNOS [2]): did not reverse
Molecule: CC(C)=CCC/C(C)=C/CC/C(C)=C/COP(=O)(O)OP(=O)(O)O [FPP, farnesyl pyrophosphate]
